This note sets out measurements from PubChem BioAssay (NCI).

Common to all, as to assay: NCI anticancer screen, dose series, 48 h
The test system of test [1] is 786-0 renal.
The subject of test [2] is CAKI-1 renal.
For test [3], the system named is EKVX NSCLC.
Test [4] has as its system MDA-MB-231 breast.
In test [5] the test system is MOLT-4 leukemia.
The subject of test [6] is RXF 393 renal.
Test [7] concerns UACC-257 melanoma.
Test [8] has as its system UO-31 renal.

SMILES strings stand for the structures.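 Values below derive from 48-hour exposures of cells grown in 96-well plates, with endpoints linearly interpolated between the two concentrations bracketing the appropriate inhibition level. GI50 is the concentration that inhibits growth by half. TGI: concentration producing complete growth inhibition.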

In the case of `C=C(c1ccc(OC)c(/C=C/C(=O)c2ccc3c(c2)OCO3)c1)c1cc(OC)c(OC)c(OC)c1`, the GI50 is 2.16 µM in test [1]; 3.02 µM in test [2]; 4.67 µM in test [3]; 5.97 µM in test [4]; 3.08 µM in test [5]; 1.98 µM in test [6]. Moreover, the GI50 in test [7] was 6.69 µM; in test [8] it was 3.1 µM. Also, the TGI was 5.61 µM in test [1]; > 100 µM in test [2]; > 100 µM in test [3]; > 100 µM in test [4]; > 100 µM in test [5]; 5.17 µM in test [6]. For the same molecule, the TGI in test [7] and in test [8] was > 100 µM in each case.
Take `O=C1N[C@@H]2[C@@H](O)[C@@H](O)[C@H](O)C[C@H]2c2cc3c(c(O)c21)OCCO3`: the GI50 was 0.293 µM in test [1]; 0.989 µM in test [2]; 0.323 µM in test [3]; 0.236 µM in test [4]; 0.193 µM in test [5]; 0.264 µM in test [6]. In addition, the GI50 was 0.34 µM in test [7] and 0.294 µM in test [8]. Moreover, the TGI came out at 2.08 µM in test [1]; 6.14 µM in test [2]; 1.85 µM in test [3]; 1.07 µM in test [4]; 3.16 µM in test [5]; 1.11 µM in test [6]. The TGI in test [7] is 1.97 µM; in test [8], 1.72 µM.
`COc1ccc(/C=C\c2cc(OC)c(OC)c(OC)c2)cc1OCC(=O)Nc1nc2ccc(F)cc2s1`: the GI50 was 7.12 µM in test [1]; 2.78 µM in test [2]; 5.72 µM in test [3]; 9.34 µM in test [4]; 3.07 µM in test [5]; 6.29 µM in test [6]. The GI50 is 8.69 µM in test [7] and 2.56 µM in test [8]. The TGI in test [1], in test [2], in test [3], in test [4], in test [5] and in test [6] was > 100 µM in each case. The TGI in test [7] and in test [8] was > 100 µM each time.
Turning to `CC(C)(C)C(=O)OCOP(=O)(NCc1ccccc1)C1CCCN(O)C1=O` (stereo unspecified), the GI50 is 3.15 µM in test [1]; 3.5 µM in test [2]; 3.91 µM in test [3]; 2.3 µM in test [4]; 2.61 µM in test [5]; 1.76 µM in test [6]. For the same molecule, the GI50 was 5.11 µM in test [7] and 0.349 µM in test [8]. Also, the TGI in test [1] is > 100 µM; in test [2], > 100 µM; in test [3], 78.8 µM; in test [4] it was 19.9 µM; in test [5], 14.4 µM; in test [6] it was 6.48 µM. The TGI worked out at 55.4 µM in test [7] and 2.99 µM in test [8].
`OCC1C(OCc2ccccc2)C(OCc2ccccc2)C(OCc2ccccc2)CN1Cc1ccccc1` (stereo unspecified): the TGI in test [1] is > 100 µM; in test [2], > 100 µM; in test [3], > 100 µM; in test [4], > 100 µM; in test [5] it was > 100 µM; in test [6] it was 48.4 µM. Further, the TGI in test [7] came to 81 µM; in test [8], 37.3 µM.
For the molecule `COc1ccc2c(c1)C(=O)c1c-2n(CCCN(C)C)c(=O)c2ccccc12`, the GI50 was 0.176 µM in test [1]; 0.243 µM in test [2]; 0.645 µM in test [3]; 1.86 µM in test [4]; < 0.0307 µM in test [5]; 0.53 µM in test [6]. The GI50 in test [7] was 0.929 µM; in test [8], 0.167 µM. Further, the TGI in test [1] came out at 2.3 µM; in test [2], 4.9 µM; in test [3], 8.45 µM; in test [4] it was 12.9 µM; in test [5] it was 12 µM; in test [6], 2.34 µM. Further, the results for the TGI in test [7] and in test [8] were 6.22 µM and 0.811 µM, respectively.
Regarding `Oc1c(Cl)cc(Cl)c(Cl)c1CNCCNCc1c(O)c(Cl)cc(Cl)c1Cl`, the GI50 was 1.48 µM in test [1]; 1.09 µM in test [2]; 1.32 µM in test [3]; 2.27 µM in test [4]; 0.561 µM in test [5]; 1.41 µM in test [6]. The results for the GI50 in test [7] and in test [8] were 1.76 µM and 0.625 µM, respectively. Besides, the TGI in test [1] is 8.43 µM; in test [2], 9.23 µM; in test [3] it was 10.2 µM; in test [4], 16.6 µM; in test [5] it was > 50 µM; in test [6], 6.74 µM. Also, the results for the TGI in test [7] and in test [8] were 9.88 µM and 6.42 µM, respectively.
`Fc1ccc(-c2c(-c3ccncc3)nc3n2CCS3)cc1`: the GI50 in test [1] was > 25 µM; in test [2], > 25 µM; in test [3], > 25 µM; in test [4], > 25 µM; in test [5] it was > 25 µM; in test [6], > 12.9 µM. The GI50 in test [7] and in test [8] was > 25 µM throughout. Moreover, the TGI in test [1], in test [2], in test [3], in test [4], in test [5] and in test [6] was > 25 µM each time. For the same molecule, the TGI in test [7] and in test [8] was > 25 µM each time.
On to `CNC(=O)c1ccc(N2C(=S)N(c3cnc(C#N)c(C(F)(F)F)c3)C(=O)C23CCC3)cc1F`, for which the GI50 in test [1] is > 100 µM; in test [2], > 100 µM; in test [3], > 100 µM; in test [4], > 100 µM; in test [5] it was 61.9 µM; in test [6], > 44.8 µM. Besides, the results for the GI50 in test [7] and in test [8] were > 95 µM and > 72.1 µM, respectively. Further, the TGI in test [1], in test [2], in test [3], in test [4], in test [5] and in test [6] was > 100 µM each time. Also, the TGI in test [7] and in test [8] was > 100 µM each time.
